Experimental data published in patent US20170156335A1, “SYSTEMS AND METHODS FOR RELEASING CHLORINE DIOXIDE” (priority 2014, published 2017).

System: Raoultella (Klebsiella) terrigena (R. terrigena, ATCC 33257)
Test: Anti-microbial activity test (AMA) in water bottles vs Raoultella terrigena
Format: cell-based
Details: AWT018; without SC

Structure (SMILES): CCOC(C)=O [EtOAc, Ethyl acetate]
- antimicrobial potential of formulation additives: no antimicrobial potential
